# Laboratory results as given in patent publication US7592360B2, “3-fluoro-piperidines as NMDA/NR2B antagonists” (Merck & Co., Inc., priority 2003, dated 2009).
# Structures can show the parent of a compound that is named as a salt.
row,melting point,SMILES
1,127 to 128 °C,"O=C([C@@H]1C[C@H]1c1ccccc1)N1CC[C@H](CNc2ncccn2)[C@H](F)C1 (as salt: hydrochloride) [Example 5, (3S,4R)-N-[(3-cis-fluoro-1-{[(1R,2R)-2-phenylcyclopropyl]carbonyl}piperidin-4-yl)methyl]pyrimidin-2-amine]"
2,115 to 117 °C,"Cc1ccc(COC(=O)N2CC[C@@H](CNc3nncs3)[C@@H](F)C2)cc1 (stereo in doubt) (as salt: hydrochloride) [Example 6, (−)-cis-4-methylbenzyl 3-fluoro-4-[(1,3,4-thiadiazol-2-ylamino)methyl]piperidine-1-carboxylate]"
3,93 to 95 °C,"Cc1ccc(COC(=O)N2CC[C@@H](CNc3nncs3)[C@H](F)C2)cc1 [Example 7, (+)-trans-4-methylbenzyl 3-fluoro-4-[(1,3,4-thiadiazol-2-ylamino)methyl]piperidine-1-carboxylate]"
